Reference: US20220204495A1, “INHIBITING TRABID” (Valo Health, Inc., priority 2019, published 2022)

Each molecule was assayed against T1, TRABID(245-697) (Homo sapiens, UniProt Q9UGI0) (assay: TRABID inhibition biochemical assay (Ub-Rh110MP fluorescence)). Conditions: 10 nM TRABID(245-697), 25 nM Ub-Rh110MP, 30 minutes preincubation with compound, 10-point 3-fold series 26.6 μM to 1.35 nM.
T1 construct: 10 nM TRABID(245-697) and 25 nM Ub-Rh110MP (UbiQ, UbiQ-126) final concentrations
T1 sequence (Q9UGI0 245-697): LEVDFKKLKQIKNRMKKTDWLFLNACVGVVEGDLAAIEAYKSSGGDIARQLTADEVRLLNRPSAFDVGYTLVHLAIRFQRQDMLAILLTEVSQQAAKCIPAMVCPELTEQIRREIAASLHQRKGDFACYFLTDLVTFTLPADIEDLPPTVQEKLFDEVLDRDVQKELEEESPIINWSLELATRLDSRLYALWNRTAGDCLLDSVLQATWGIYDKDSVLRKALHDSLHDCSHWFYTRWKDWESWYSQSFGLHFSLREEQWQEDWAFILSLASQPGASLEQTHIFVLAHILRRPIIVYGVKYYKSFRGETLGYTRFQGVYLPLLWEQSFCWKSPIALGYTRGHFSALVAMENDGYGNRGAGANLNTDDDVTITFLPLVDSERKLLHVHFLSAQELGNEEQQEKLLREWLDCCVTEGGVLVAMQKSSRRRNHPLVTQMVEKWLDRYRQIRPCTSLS
Protocol: TRABID enzymatic assays were performed in a final volume of 6 μL in buffer containing 20 mM Tris-HCl pH 8.0, (Corning 46-031-CM), and 1 mM GSH (Sigma, G4251), 0.03% BGG (Sigma, G7516), and 0.01% Triton X-100 (Sigma, 93443). Test compounds were serially diluted in DMSO (Sigma, G7516) to obtain 10-point, 3-fold series. Nanoliter quantities were pre-dispensed into 1536 assay plates (Corning, 9110BC) for the concentration response range, 26.6 μM to 1.35 nM. 3 μL of 2× enzyme was added to the assay plates, preincubated with compound for 30 minutes and then 3 μL of 2× substrate was added to initiate the reaction (10 nM TRABID(245-697) and 25 nM Ub-Rh110MP (UbiQ, UbiQ-126) final concentrations). Enzyme and substrate concentrations and incubation times were optimized for the maximal signal-to-background while maintaining linear initial velocity conditions at a fixed substrate concentration below Km.
Fluorescence signal was measured on an EnVision Plate Reader (PerkinElmer) equipped with 485 nm excitation filter and 535 nm emission filters.
Rates were calculated by: rate=((final FLU−initial FLU)/600 seconds) where final FLU=fluorescence at time 10 minutes, initial FLU=fluorescence at time 0 minutes and 600=duration of reaction in seconds.
Data were reported as percent inhibition compared with control wells based on the following equation: % inh=[…] where rate=measured rate of fluorescence generated during assay, AveLow=average rate of no enzyme control (n=32), and AveHigh=average rate of DMSO control (n=32).
IC50 values were determined by curve fitting of the standard 4 parameter logistic fitting algorithm included in the Activity Base software package (IDBS) using XE Designer equation Model 205. Data were fitted using the Levenburg Marquardt algorithm.

`N#CNCC12CC1CN(C(=O)c1csc(-c3ccc(Cl)cc3Cl)n1)C2` (centres unmarked) [Compound 17] was tested. Which IC50 did it give?
The IC50 was 1.6 µM.

How did the IC50 turn out when `N#CN[C@H]1[C@@H]2CN(C(=O)c3nc(-c4ccccc4)cs3)C[C@@H]21` [Compound 25] was run?
Its IC50 is 4.41 µM.

How did the IC50 turn out when `N#CNC1CC2(CCN(C(=O)c3csc(-c4ccc(Cl)cc4Cl)n3)CC2)C1` [Compound 44] was run?
Its IC50 is 8 µM.

How did the IC50 turn out when `COc1ccccc1-c1nc(C(=O)N2CC[C@@H](CNC#N)C2)cs1` [Compound 12, cyano([[(3S)-1-[2-(2-methoxyphenyl)-1,3-thiazole-4-carbonyl]pyrrolidin-3-yl]methyl])amine] was run?
Its IC50 is 1.25 µM.

How did the IC50 turn out when `N#CNC[C@@H]1CCCN(C(=O)c2csc(-c3ccc(Cl)cc3Cl)n2)C1` [Compound 32] was run?
Its IC50 is 5.27 µM.

Which IC50 does the source give for `COc1ccc(-c2cc(C(=O)N3CC4CC4(CNC#N)C3)on2)cc1` (centres unmarked) [Compound 31] here?
Its IC50 is 5.21 µM.

With `COc1cccc(-c2ncc(NC(=O)CCCNC#N)s2)c1` [Compound 3, 4-(cyanoamino)-N-[2-(3-methoxyphenyl)-1,3-thiazol-5-yl]butanamide] as the molecule, how does the IC50 read?
The IC50 was 0.743 µM.

Which IC50 does the source give for `N#CNC[C@H]1CN(C(=O)c2csc(-c3ccc(Cl)cc3Cl)n2)CCO1` [Compound 24, Cyano({[(2S)-4-[2-(2,4-dichlorophenyl)-1,3-thiazole-4-carbonyl]morpholin-2-yl]methyl})amine] here?
The IC50 was 4 µM.

Which IC50 does the source give for `COc1cccc(-c2ncc(NC(=O)[C@@H](C)CCNC#N)s2)c1` [Compound 6, (2S)-4-(cyanoamino)-N-[2-(3-methoxyphenyl)-1,3-thiazol-5-yl]-2-methylbutanamide] here?
Its IC50 is 0.951 µM.

With `N#CNC[C@H]1CCN(C(=O)c2csc(-c3ccc(Cl)cc3Cl)n2)C1` [Compound 11] as the molecule, how does the IC50 read?
Its IC50 is 1.16 µM.

How did the IC50 turn out when `N#CNC1C[C@@]12CCN(C(=O)c1nc(-c3ccccc3)cs1)C2` (some centres unmarked) [Compound 36] was run?
The IC50 was 6.51 µM.

With `Cn1cc(-c2ccc(-c3cc(C(=O)N4CCC5(CC(NC#N)C5)C4)on3)cc2)cn1` (centres unmarked) [Compound 13, [(6-[3-[4-(1-methyl-1H-pyrazol-4-yl)phenyl]-1,2-oxazole-5-carbonyl]-6-azaspiro[3.4]octan-2-yl)amino]formonitrile] as the molecule, how does the IC50 read?
The IC50 was 1.26 µM.

Which IC50 does the source give for `COc1ccc(-c2cc(C(=O)N(C)CCCNC#N)on2)cc1` [Compound 41] here?
The IC50 was 7.75 µM.

With `CN(C(=O)c1cnc(-c2ccccc2)s1)[C@H]1C[C@H](CNC#N)C1` (single isomer, unassigned) [Compound 20, N-methyl-2-phenyl-N-[(trans)-3-[(cyanoamino)methyl]cyclobutyl]-1,3-thiazole-5-carboxamide] as the molecule, how does the IC50 read?
The IC50 was 2.95 µM.

For `N#CNCC1CN(C(=O)c2csc(-c3ccc(Cl)cc3Cl)n2)C1` [Compound 29], which IC50 is on record?
Its IC50 is 5.16 µM.

For `COc1cccc(-c2ncc(NC(=O)[C@H](C)CNC#N)s2)c1` [Compound 43, (2R)-3-(cyanoamino)-N-[2-(3-methoxyphenyl)-1,3-thiazol-5-yl]-2-methylpropanamide], which IC50 is on record?
The IC50 was 7.88 µM.

With `N#CN[C@H]1C[C@]2(CCN(C(=O)c3cc(-c4ccccn4)no3)C2)C1` (single isomer, unassigned) [Compound 45, {[(2r,4s)-6-[3-(pyridin-2-yl)-1,2-oxazole-5-carbonyl]-6-azaspiro[3.4]octan-2-yl]amino}formonitrile] as the molecule, how does the IC50 read?
Its IC50 is 8.1 µM.

For `COc1cccc(-c2cc(C(=O)N3CC4CC4(CNC#N)C3)on2)c1` (centres unmarked) [Compound 22], which IC50 is on record?
Its IC50 is 3.4 µM.

With `N#CN[C@H]1[C@@H]2CN(C(=O)c3csc(-c4ccc(Cl)cc4Cl)n3)C[C@@H]21` [Compound 26] as the molecule, how does the IC50 read?
Its IC50 is 4.53 µM.

How did the IC50 turn out when `COc1cccc(-c2ncc(NC(=O)[C@H](C)CCNC#N)s2)c1` [Compound 4, (2R)-4-(cyanoamino)-N-[2-(3-methoxyphenyl)-1,3-thiazol-5-yl]-2-methylbutanamide] was run?
Its IC50 is 0.85 µM.

`N#CNC1C[C@@]12CCN(C(=O)c1csc(-c3ccc(Cl)cc3Cl)n1)C2` (some centres unmarked) [Compound 7] was tested. Which IC50 did it give?
The IC50 was 1.06 µM.

How did the IC50 turn out when `N#CNC[C@H]1C[C@H](NC(=O)c2cnc(-c3ccccc3)s2)C1` [Compound 16, 2-phenyl-N-[(trans)-3-[(cyanoamino)methyl]cyclobutyl]-1,3-thiazole-5-carboxamide] was run?
The IC50 was 1.58 µM.

With `COc1ccccc1-c1ncc(NC(=O)CCCNC#N)s1` [Compound 10, 4-(cyanoamino)-N-[2-(2-methoxyphenyl)-1,3-thiazol-5-yl]butanamide] as the molecule, how does the IC50 read?
The IC50 was 1.16 µM.

With `COc1cccc(-c2cc(C(=O)N3CC[C@@]4(CC4NC#N)C3)on2)c1` (some centres unmarked) [Compound 38] as the molecule, how does the IC50 read?
Its IC50 is 0.52 µM.

How did the IC50 turn out when `CN(CCCNC#N)C(=O)c1nc(-c2ccccc2)cs1` [Compound 48] was run?
The IC50 was 8.74 µM.

With `COc1ccc(-c2cc(C(=O)N3CC[C@@]4(CC4NC#N)C3)on2)cc1` (some centres unmarked) [Compound 34] as the molecule, how does the IC50 read?
The IC50 was 5.66 µM.

With `Cn1cc(-c2ccc(-c3cc(NC(=O)CCCNC#N)on3)cc2)cn1` [Compound 8, 4-(cyanoamino)-N-[3-[4-(1-methylpyrazol-4-yl)phenyl]-1,2-oxazol-5-yl]butanamide] as the molecule, how does the IC50 read?
The IC50 was 1.06 µM.

With `N#CNC[C@H]1CCN(C(=O)c2nc(-c3ccccc3)cs2)C1` [Compound 46] as the molecule, how does the IC50 read?
The IC50 was 8.47 µM.

With `N#CNC[C@H]1CCCN1C(=O)c1csc(-c2ccc(Cl)cc2Cl)n1` [Compound 39] as the molecule, how does the IC50 read?
Its IC50 is 6.62 µM.

How did the IC50 turn out when `C[C@@H](CNC#N)C(=O)Nc1cc(-c2ccc(-c3cnn(C)c3)cc2)no1` [Compound 19, (2S)-3-(cyanoamino)-2-methyl-N-[3-[4-(1-methylpyrazol-4-yl)phenyl]-1,2-oxazol-5-yl]propanamide] was run?
The IC50 was 2.59 µM.

How did the IC50 turn out when `N#CN[C@H]1CC[C@@H](NC(=O)c2cccc(Oc3ccccc3)c2)C1` [Compound 40] was run?
Its IC50 is 7.29 µM.

How did the IC50 turn out when `COc1ccccc1-c1nc(C(=O)N2CC[C@H](CNC#N)C2)cs1` [Compound 14, cyano([[(3R)-1-[2-(2-methoxyphenyl)-1,3-thiazole-4-carbonyl]pyrrolidin-3-yl]methyl])amine] was run?
The IC50 was 1.28 µM.

`N#CNCCCC(=O)Nc1cnc(-c2ccccc2Oc2ccccc2)s1` [Compound 9, 4-(cyanoamino)-N-[2-(2-phenoxyphenyl)-1,3-thiazol-5-yl]butanamide] was tested. Which IC50 did it give?
Its IC50 is 1.13 µM.

`N#CNC[C@@H]1CCN(C(=O)c2csc(-c3ccccc3Oc3ccccc3)n2)C1` [Compound 1, cyano([[(3S)-1-[2-(2-phenoxyphenyl)-1,3-thiazole-4-carbonyl]pyrrolidin-3-yl]methyl])amine] was tested. Which IC50 did it give?
Its IC50 is 0.14 µM.

With `Cn1cc(-c2ccc(-c3cc(NC(=O)CCNC#N)on3)cc2)cn1` [Compound 15, 3-(cyanoamino)-N-[3-[4-(1-methylpyrazol-4-yl)phenyl]-1,2-oxazol-5-yl]propanamide] as the molecule, how does the IC50 read?
Its IC50 is 1.39 µM.

Which IC50 does the source give for `C[C@H](CNC#N)C(=O)Nc1cc(-c2ccc(-c3cnn(C)c3)cc2)no1` [Compound 18, (2R)-3-(cyanoamino)-2-methyl-N-[3-[4-(1-methylpyrazol-4-yl)phenyl]-1,2-oxazol-5-yl]propanamide] here?
The IC50 was 1.66 µM.

Which IC50 does the source give for `N#CNC[C@H]1CCN(C(=O)c2csc(-c3ccccc3Oc3ccccc3)n2)C1` [Compound 2, cyano([[(3R)-1-[2-(2-phenoxyphenyl)-1,3-thiazole-4-carbonyl]pyrrolidin-3-yl]methyl])amine] here?
The IC50 was 0.439 µM.

`COc1cccc(-c2ncc(C(=O)NCCCNC#N)s2)c1` [Compound 5, N-[3-(cyanoamino)propyl]-2-(3-methoxyphenyl)-1,3-thiazole-5-carboxamide] was tested. Which IC50 did it give?
The IC50 was 0.872 µM.
